Here are results for 19 molecules from patent publication US6255327A, “Diphenyl-substituted heterocycles, processes for preparing them and their use as pharmaceutical compositions” (Boehringer Ingelheim Pharma KG, priority 1998, dated 2001).

The test system of one data set is AMPA receptor. In words: Inhibition of the cainate-induced signal at the AMPA receptor, electrophysiology on neuronal cells (patch-clamp method). The following applies: test concentration of 100 μM. Type of data set: cell-based. As for the experimental part:
The testing was carried out at a test concentration of 100 μM.
(The patch-clamp technique gives a direct electrical read-out from membranes.)

The target of data set [1] is "Na^+ channel site 2" binding site. Put plainly: Affinity to the "Na^+ channel site 2" binding site. To be noted: typically at a test concentration of 10 μM. As for the experimental part: The testing was typically carried out at a test concentration of 10 μM.
In a further data set the test system is neurones in mouse brains. To be noted: after systemic administration; cited from earlier work.

Structures are written as SMILES.

Consider `c1ccc(-c2ncn(-c3ccccc3)n2)cc1` [Example 1, 1,3-Diphenyl-1,2,4-triazole], for which, in the data set on AMPA receptor, the “AMPA Inh. [%] (inhibition of the cainate-induced signal at the AMPA receptor)” value is 56%.

For `COc1ccccc1-n1cnc(-c2ccccc2)n1` [Example 2, 1-(2-methoxyphenyl)-3-phenyl-1,2,4-triazole], in the data set on AMPA receptor, the “AMPA Inh. [%] (inhibition of the cainate-induced signal at the AMPA receptor)” value is recorded as 96%.

Consider `CN(C)CCOc1ccccc1-n1cnc(-c2ccccc2)n1` [Example 3, 1-{2-[2(N,N-Dimethylamino)ethyl]oxy-phenyl}-3-phenyl-1,2,4-triazole], for which the Ki (commonly the equilibrium dissociation constant of an inhibitor or competing ligand from its target) in data set [1] amounted to 3700 nM. In addition, the “AMPA Inh. [%] (inhibition of the cainate-induced signal at the AMPA receptor)” value in the data set on AMPA receptor was 74%.

`CN(C)CCOc1ccccc1-c1ncn(-c2ccccc2)n1` [Example 5, 3-{2-[2(N,N-Dimethylamino)ethyl]oxy-phenyl}-1-phenyl-1,2,4-triazole] displayed a Ki in data set [1] of 700 nM. The “AMPA Inh. [%] (inhibition of the cainate-induced signal at the AMPA receptor)” value in the data set on AMPA receptor is reported as 76%.

`CN(C)CCOc1ccccc1-c1n[nH]c(-c2ccccc2)n1` [Example 7, 3-{2-[2(N,N-Dimethylamino)ethyl]oxy-phenyl}-5-phenyl-1,2,4-triazole] came in with a Ki in data set [1] of 1200 nM. The “AMPA Inh. [%] (inhibition of the cainate-induced signal at the AMPA receptor)” value with AMPA receptor is 39%.

In data set [1], `CN(C)CCOc1ccccc1-c1coc(-c2ccccc2)n1` [Example 8, 4-{2-[2(N,N-dimethylamino)ethyl]oxy-phenyl}-2-phenyl-1,3-oxazole] came in with a Ki of 4600 nM. The “AMPA Inh. [%] (inhibition of the cainate-induced signal at the AMPA receptor)” value with AMPA receptor was found to be 77%.

For `CN(C)CCOc1ccccc1-c1c[nH]c(-c2ccccc2)n1` [Example 9, 4-{2-[2(N,N-dimethylamino)ethyl]oxy-phenyl}-2-phenyl-imidazole], the Ki in data set [1] is 1800 nM.

`CN(C)CCOc1ccccc1-c1cnc(-c2ccccc2)o1` [Example 10, 5-{2-[2(N,N-dimethylamino)ethyl]oxy-phenyl}-2-phenyl-1,3-oxazole]: affinity in data set [1] was put at a Ki of 990 nM. Moreover, the “AMPA Inh. [%] (inhibition of the cainate-induced signal at the AMPA receptor)” value in the data set on AMPA receptor was determined as 98%.

In turn, `CN(C)CCOc1ccccc1-c1nn(-c2ccccc2)c(=O)o1` [Example 12, 5-{2-[2(N,N-dimethylamino)ethyl]oxy-phenyl}-3-phenyl-1,3,4-oxadiazol-2-one] returned a Ki in data set [1] of 990 nM.

The molecule `COc1ccccc1-c1c[nH]c(-c2ccccc2)c1` [Example 13, 3-(2-methoxyphenyl)-5-phenyl-1H-pyrrole] returned a Ki in data set [1] of 1100 nM.

The molecule `COc1ccccc1-c1cnn(-c2ccccc2)c1` [Example 17, 4-(2-methoxyphenyl)-1-phenyl-pyrazole] gave a Ki in data set [1] of 390 nM. Besides, the “AMPA Inh. [%] (inhibition of the cainate-induced signal at the AMPA receptor)” value in the data set with AMPA receptor was found to be 53%.

With `CN(C)CCOc1ccccc1N1C(=O)NC(c2ccccc2)C1=O` (stereo not shown) [Example 19, 3-{2-[2(N,N-dimethylamino)ethyl]oxy-phenyl}-5-phenyl-imidazolidin-2,4-dione], in data set [1], affinity was put at a Ki of 550 nM.

`CN(C)CCOc1ccccc1-n1cc(-c2ccccc2)[nH]c1=O` [Example 20, 1-{2-[2(N,N-dimethylamino)ethyl]oxy-phenyl}-4-phenyl-1,3-dihydro-imidazole-2-one] came in with a Ki in data set [1] of 360 nM.

In data set [1], `CN(C)CCOc1ccccc1C1NC(=O)N(c2ccccc2)C1=O` (stereo not shown) [Example 21, 5-{2-[2(N,N-dimethylamino)ethyl]oxy-phenyl}-3-phenyl-imidazolidin-2,4-dione] had a Ki of 710 nM.

As for `CN(C)CCOc1ccccc1-c1cn(-c2ccccc2)c(=O)[nH]1` [Example 22, 4-{2-[2(N,N-dimethylamino)ethyl]oxy-phenyl}-1-phenyl-1,3-dihydro-imidazol-2-one], the Ki in data set [1] came out at 1300 nM.

As to `CN(C)CCOc1ccccc1-c1nc(-c2ccccc2)nn1C` [Example 23, 5-{2-[2(N,N-dimethylamino)-ethyl]oxy-phenyl}-1-methyl-3-phenyl-1,2,4-triazole], the affinity in data set [1] corresponds to a Ki of 1400 nM.

On to `CN(C)CCOc1ccccc1-c1ccc(-c2ccccc2)[nH]1` [Example 24, 2-{2-[2(N,N-dimethylamino)-ethyl]oxy-phenyl}-5-phenyl-pyrrole], for which the affinity in data set [1] corresponds to a Ki of 460 nM.

`CN(C)CCOc1ccccc1-c1nc(-c2ccccc2)c[nH]1` [Example 25, 2-{2-[2(N,N-dimethylamino)-ethyl]-oxy-phenyl}-4-phenyl-imidazole] yielded a Ki in data set [1] of 1300 nM.

As to `N[C@@H](CCC(=O)O)C(=O)O` [glutamate], in the data set with neurones in mouse brains, the “destruction of neurones in mouse brains (in words)” value is “neurones are destroyed in mouse brains”.
